Experimental data: US20260242438A1 (INSTITUTE OF MATERIA MEDICA, CHINESE ACADEMY OF MEDICAL …, priority 2022, published 2026)
Where a SMILES comes first, the peptide text is derived from it. Bridges are numbered along the chain shown (N, C = ends).

Molecular target: chymotrypsin (Bos taurus, UniProt P00766)
Assay: Determination of enzyme inhibitory activity against chymotrypsin (substrate AAPFpNA, OD 405 nm)
Type: biochemical
Conditions: for IC50: chymotrypsin 30 nM, AAPFpNA 0.5 mM, pH 7.8, 37° C.; for remaining activity at 0.0001 µM: peptide 0.0001 μM; for remaining activity at 0.001 µM: peptide 0.001 μM; for remaining activity at 0.01 µM: peptide 0.01 μM; for remaining activity at 0.15 µM: peptide 0.15 μM; for remaining activity at 0.3 µM: peptide 0.3 μM; for remaining activity at 1 µM: peptide 1 μM; for remaining activity at 10 µM: peptide 10 μM; for remaining activity at 100 µM: peptide 100 μM; for remaining activity at 0.1 µM: peptide 0.1 μM; for remaining activity at 0.2 µM: peptide 0.2 μM; for remaining activity at 0.4 µM: peptide 0.4 μM; for remaining activity at 5 µM: peptide 5 μM; for inhibitory activity reduced (fold): relative to CH10; for remaining activity at 0.5 µM: peptide 0.5 μM; for remaining activity at 1000 µM: peptide 1000 μM; for remaining activity at 0.75 µM: peptide 0.75 μM; for remaining activity at 0.8 µM: peptide 0.8 μM
Procedure: The substrates N-succinyl-Ala-Ala-Pro-Phe-p-nitroaniline (AAPFpNA) is used in competitive binding reaction to determine the inhibitory activities against α -chymotrypsin. Experiments for a-chymotrypsin was measured in 20 mM CaCl2, 50 mM Tris-HCl buffer (pH 7.8). The concentration of the peptide was measured using optical density (OD) at 280 nm. The Michaelis constant (Km) of the enzyme hydrolysis substrate is calculated from the initial rate of substrate hydrolysis at 405 nm. The absorbance value of the substrate was measured at 405 nm after complete hydrolysis. All data were processed using nonlinear regression.
(1) Added a total 190 μL of reaction buffer (20 mM CaCl2, 50 mM Tris-HCl (pH 7.8)), different concentrations of anti-chymorypsin peptides (CHs) into the pre-cold 96 well plate, followed by preheating at 37° C. for 5 min and centrifugated at 500 rpm for 1 min and allowed to stand for 4 minutes. Then added 8 μL of 750 nM chymotrypsin and incubated at 37° C. for 10 min, and centrifugated at 500 rpm for 1 min and allowed to stand for 9 minutes. Finally, added 2 μL of 50 mM AAPFpNA, and mixed by centrifugation at 500 rpm for 1 min. The plate was incubated at 37° C. for 90 min, and the absorbance value at 405 nm was measured. Three repetitions were made, and only reaction buffer and substrate were added in the blank control as the minimum absorption value (Min OD 405 nm); Only reaction buffer, enzyme and substrate were added in the negative control as the maximum absorption value (Max OD 405 nm).
(2) In the 200 μL of reaction system, the final concentrations of chymotrypsin and AAPFpNA were 30 nM and 0.5 mM, respectively.
Plotted the residual activity of enzyme with […] to obtain the half inhibitory concentration (IC50) of anti-chymorypsin peptides (CHs). Then, substituted it into the formula […]/(1+S/Km) (S, IC50, and Km were substrate concentration, half inhibitory concentration, and Michaelis constant, respectively) to obtain the inhibition constant Ki of anti-chymorypsin peptides (CHs).

[1] = read-out: Residual activity of chymotrypsin

Row | SMILES | Ki | IC50 | remaining activity at 0.0001 µM [1] | remaining activity at 0.001 µM [1] | remaining activity at 0.01 µM [1] | remaining activity at 1 µM [1] | remaining activity at 10 µM [1] | remaining activity at 100 µM [1] | remaining activity at 0.1 µM [1] | remaining activity at 0.2 µM [1] | remaining activity at 0.4 µM [1] | inhibitory activity reduced (fold) | remaining activity at 1000 µM [1] | also measured
1 | CC[C@H](C)[C@@H]1NC(=O)[C@H](CO)NC(=O)[C@H](Cc2ccccc2)NC(=O)[C@H]([C@@H](C)O)NC(=O)[C@@H](NC(=O)[C@@H](N)Cc2ccccc2)CSSC[C@@H](C(=O)N[C@@H](Cc2ccc(O)cc2)C(=O)NCC(=O)O)NC(=O)[C@H](CCC(N)=O)NC(=O)[C@@H]2CCCN2C(=O)[C@@H]2CCCN2C1=O [CH5] (H-FCTFSIPPQCYG-OH; disulfide 2-10; C-terminus assumed) | 80 nM | 190 nM | 96.7 ± 9.3% | 113 ± 2.4% | 102 ± 3.7% | 11.3 ± 1.5% | 0.3% | 0.3 ± 0.2% | – | – | – | – | – | remaining activity at 0.15 µM [1]: 58.3 ± 2.3%; remaining activity at 0.3 µM [1]: 41.9 ± 5.7%; remaining activity at 0.6 µM (peptide 0.6 μM, read-out: Residual activity of chymotrypsin): 19 ± 0.8%
2 | CC[C@H](C)[C@@H]1NC(=O)[C@H](CO)NC(=O)[C@H](Cc2ccccc2)NC(=O)[C@H]([C@@H](C)O)NC(=O)[C@@H](NC(=O)[C@@H](N)CO)CSSC[C@@H](C(=O)N[C@@H](Cc2ccc(O)cc2)C(=O)NCC(=O)O)NC(=O)[C@H](CCC(N)=O)NC(=O)[C@@H]2CCCN2C(=O)[C@@H]2CCCN2C1=O [CH11] (H-SCTFSIPPQCYG-OH; disulfide 2-10; C-terminus assumed) | 150 nM | 350 nM | – | 98.5 ± 3.1% | 104 ± 1.8% | 17.6 ± 0.8% | 6.5 ± 0.3% | 1.1 ± 0.2% | 95.3 ± 3% | – | – | ~7 times | – | remaining activity at 0.15 µM [1]: 82.3 ± 3.3%; remaining activity at 5 µM [1]: 12.5 ± 0.7%; remaining activity at 300 µM (peptide 300 μM, read-out: Residual activity of chymotrypsin): 0.2 ± 0.6%
3 | CC[C@H](C)[C@@H]1NC(=O)[C@H](CO)NC(=O)[C@H](Cc2ccc(O)cc2)NC(=O)[C@H]([C@@H](C)O)NC(=O)[C@@H](NC(=O)[C@H](C)N)CSSC[C@@H](C(=O)N[C@@H](Cc2ccccc2)C(=O)O)NC(=O)[C@H](CCCCN)NC(=O)[C@H](C)NC(=O)[C@@H]2CCCN2C1=O [CH18] (H-ACTYSIPAKCF-OH; disulfide 2-10; C-terminus assumed) | 200 nM | 470 nM | – | 103.6 ± 0.2% | 102 ± 3.7% | – | 3.4 ± 0.5% | 0.3 ± 0.1% | 102 ± 2.4% | 90.3 ± 4.1% | – | – | 0.1 ± 0.1% | remaining activity at 0.5 µM [1]: 49.4 ± 3.7%; remaining activity at 2.5 µM (peptide 2.5 μM, read-out: Residual activity of chymotrypsin): 3.7 ± 0.5%
4 | CC[C@H](C)[C@@H]1NC(=O)[C@@H]2CCCN2C(=O)[C@@H]2CCCN2C(=O)[C@H]([C@@H](C)CC)NC(=O)[C@H](CO)NC(=O)[C@H](Cc2ccccc2)NC(=O)[C@H]([C@@H](C)O)NC(=O)[C@@H](NC(=O)[C@@H](NC(=O)CN)[C@@H](C)O)CSSC[C@@H](C(=O)N[C@@H](CC(N)=O)C(=O)N2CCC[C@H]2C(=O)N[C@@H](CC(N)=O)C(=O)O)NC1=O [CH25] (H-GTCTFSIPPICNPN-OH; disulfide 3-11; C-terminus assumed) | – | – | 99.7 ± 1% | 100 ± 1.9% | 96.9 ± 1.4% | 15.4 ± 1.2% | 1.5 ± 0.3% | 0.2 ± 0.2% | – | 63.1 ± 4.1% | – | – | 0.2 ± 0.1% | remaining activity at 0.3 µM [1]: 44.6 ± 4.9%
5 | CC[C@H](C)[C@@H]1NC(=O)[C@@H]2CCCN2C(=O)[C@@H]2CCCN2C(=O)[C@H]([C@@H](C)CC)NC(=O)[C@H](CO)NC(=O)[C@H](Cc2ccccc2)NC(=O)[C@H]([C@@H](C)O)NC(=O)[C@@H](NC(=O)[C@@H](NC(=O)CN)[C@@H](C)O)CSSC[C@@H](C(=O)N[C@@H](CC(N)=O)C(=O)O)NC1=O [CH26] (H-GTCTFSIPPICN-OH; disulfide 3-11; C-terminus assumed) | 230 nM | 540 nM | – | 101 ± 1.6% | – | 27.8 ± 2.5% | 2.2 ± 0.2% | 0.3 ± 0.1% | 95.1 ± 2.1% | 83.1 ± 1.1% | 63.2 ± 4.5% | – | 0.1% | remaining activity at 5 µM [1]: 7 ± 0.5%
6 | CC[C@H](C)[C@@H]1NC(=O)[C@H](CO)NC(=O)[C@H](Cc2ccc(O)cc2)NC(=O)[C@H]([C@@H](C)O)NC(=O)[C@@H](NC(=O)[C@@H](N)Cc2ccccc2)CSSC[C@@H](C(=O)N[C@@H](CCCNC(=N)N)C(=O)O)NC(=O)[C@H](CCC(N)=O)NC(=O)[C@@H]2CCCN2C(=O)[C@@H]2CCCN2C1=O [CH35] (H-FCTYSIPPQCR-OH; disulfide 2-10; C-terminus assumed) | 190 nM | 450 nM | – | 100.8 ± 0.9% | 101 ± 1.2% | 16.6 ± 4.7% | 2.6 ± 0.2% | 0% | 101 ± 2.6% | 78.9 ± 2.9% | 58.8 ± 3.4% | ~7 times | – | remaining activity at 0.8 µM [1]: 27.3 ± 2.9%

Continued, in another order:

Row | Ki | IC50 | remaining activity at 0.0001 µM [1] | remaining activity at 0.001 µM [1] | remaining activity at 0.01 µM [1] | remaining activity at 1 µM [1] | remaining activity at 10 µM [1] | remaining activity at 100 µM [1] | remaining activity at 0.1 µM [1] | remaining activity at 0.2 µM [1] | remaining activity at 0.4 µM [1] | inhibitory activity reduced (fold) | remaining activity at 1000 µM [1] | SMILES | also measured
7 | 30 nM | 60 nM | 101% | – | 95.1 ± 1.2% | 3.8 ± 0.4% | 0.1 ± 0.1% | -0.1% | 35.4 ± 7.2% | 24.9 ± 3.5% | 18 ± 4.9% | – | – | CC[C@H](C)[C@@H]1NC(=O)[C@H](CO)NC(=O)[C@H](Cc2ccc(O)cc2)NC(=O)[C@H]([C@@H](C)O)NC(=O)[C@@H](NC(=O)[C@@H](N)Cc2ccccc2)CSSC[C@@H](C(=O)N[C@@H](Cc2ccc(O)cc2)C(=O)NCC(=O)O)NC(=O)[C@H](CCC(N)=O)NC(=O)[C@@H]2CCCN2C(=O)[C@@H]2CCCN2C1=O [CH10] (H-FCTYSIPPQCYG-OH; disulfide 2-10; C-terminus assumed) | –
8 | 190 nM | 440 nM | – | 99.5 ± 1.4% | 92.1 ± 2.1% | 19.8 ± 1% | 2 ± 0.2% | 0.1% | 93.6 ± 1.6% | – | – | – | 0.1% | CC[C@H](C)[C@@H]1NC(=O)[C@H](CO)NC(=O)[C@H](Cc2ccc(O)cc2)NC(=O)[C@H]([C@@H](C)O)NC(=O)[C@@H](NC(=O)[C@@H](N)Cc2ccccc2)CSSC[C@@H](C(=O)N[C@@H](Cc2ccc(O)cc2)C(=O)O)NC(=O)[C@H](CCC(N)=O)NC(=O)[C@@H]2CCCN2C(=O)[C@@H]2CCCN2C1=O [CH33] (H-FCTYSIPPQCY-OH; disulfide 2-10; C-terminus assumed) | remaining activity at 0.5 µM [1]: 42.7 ± 3.1%; remaining activity at 0.75 µM [1]: 24.6 ± 2%
9 | 160 nM | 370 nM | – | 102.3 ± 0.8% | 104.1 ± 0.5% | 17.8 ± 0.9% | 1.2 ± 0.1% | 0.1% | 104.8 ± 0.6% | 78.5 ± 2.5% | 45.5 ± 1.5% | – | – | CC[C@H](C)[C@@H]1NC(=O)[C@H](CO)NC(=O)[C@H](Cc2ccc(O)cc2)NC(=O)[C@H]([C@@H](C)O)NC(=O)[C@@H](NC(=O)[C@@H](N)Cc2ccccc2)CSSC[C@@H](C(=O)N[C@@H](Cc2ccc(O)cc2)C(=O)N[C@@H](C)C(=O)O)NC(=O)[C@H](CCC(N)=O)NC(=O)[C@@H]2CCCN2C(=O)[C@@H]2CCCN2C1=O [CH34] (H-FCTYSIPPQCYA-OH; disulfide 2-10; C-terminus assumed) | remaining activity at 0.75 µM [1]: 24.5 ± 0.9%
10 | 200 nM | 460 nM | – | 100 ± 1.2% | 100 ± 0.2% | 24.3 ± 2.4% | 3 ± 0.2% | 0.3% | 95.4 ± 2.2% | 80.3 ± 3.9% | 54.2 ± 1.8% | ~7 times | – | CC[C@H](C)[C@@H]1NC(=O)[C@H](CO)NC(=O)[C@H](Cc2ccc(O)cc2)NC(=O)[C@H]([C@@H](C)O)NC(=O)[C@@H](NC(=O)[C@@H]2CCCN2)CSSC[C@@H](C(=O)N[C@@H](Cc2ccc(O)cc2)C(=O)O)NC(=O)[C@H](CCC(N)=O)NC(=O)[C@@H]2CCCN2C(=O)[C@@H]2CCCN2C1=O [CH51] (H-PCTYSIPPQCY-OH; disulfide 2-10; C-terminus assumed) | remaining activity at 0.8 µM [1]: 31.2 ± 1.6%
